Measurements published in patent US20060089375A1, “Pyrazolo[3,4-b] pyridine compounds, and their use as phosphodiesterase inhibitors” (priority 2002, published 2006).

Target: T1, PDE4B (human recombinant) (Homo sapiens, UniProt Q07343)
T1 construct: made in house
Assay: Inhibition of PDE4B activity: radioactive SPA or IMAP Fluorescence Polarisation (FP) assay
Type: biochemical
Conditions: PDE4B inhibitory activity, one reading or average of ca. 2-6 readings, read-out: PDE4B pIC50 (± about 0.5) (converted)
Description: Human recombinant PDE4B, in particular the 2B splice variant thereof (HSPDE4B2B), is disclosed in WO 94/20079 and also M. M. McLaughlin et al., “A low Km, rolipram-sensitive, cAMP-specific phosphodiesterase from human brain: cloning and expression of cDNA, biochemical characterisation of recombinant protein, and tissue distribution of mRNA”, J. Biol. Chem., 1993, 268, 6470-6476. For example, in Example 1 of WO 94/20079, human recombinant PDE4B is described as being expressed in the PDE-deficient yeast Saccharomyces cerevisiae strain GL62, e.g. after induction by addition of 150 uM CuSO4, and 100,000×g supernatant fractions of yeast cell lysates are described for use in the harvesting of PDE4B enzyme.
The ability of compounds to inhibit catalytic activity at PDE4B or 4D (human recombinant), PDE3 (from bovine aorta), PDE5 (human recombinant) or PDE6 (from bovine retina) was determined by Scintillation Proximity Assay (SPA) in 96-well format. Test compounds (preferably as a solution in DMSO, e.g. 0.5 to 1 microlitre (ul) volume) were preincubated at ambient temperature (room temperature, e.g. 19-23° C.) in Wallac Isoplates (code 1450-514) with PDE enzyme in 50 mM Tris-HCl buffer pH 7.5, 8.3 mM MgCl2, 1.7 mM EGTA, 0.05% (w/v) bovine serum albumin for 10-30 minutes (usually 30 minutes). The enzyme concentration was adjusted so that no more than 20% hydrolysis of the substrate defined below occurred in control wells without compound, during the incubation. For the PDE3, PDE4B and PDE4D assays, [5′,8-^3H]Adenosine 3′,5′-cyclic phosphate (Amersham Pharmacia Biotech, code TRK.559; or Amersham Biosciences UK Ltd, Pollards Wood, Chalfont St Giles, Buckinghamshire HP8 4SP, UK) was added to give 0.05 uCi per well and ˜10 nM final concentration. For the PDE5 and PDE6 assays, [8-^3H]Guanosine 3′,5′-cyclic phosphate (Amersham Pharmacia Biotech, code TRK.392) was added to give 0.05 uCi per well and ˜36 nM final concentration. Plates, e.g. containing approx. 100 ul volume of assay mixture, were mixed on an orbital shaker for 5 minutes and incubated at ambient temperature for 1 hour. Phosphodiesterase SPA beads (Amersham Pharmacia Biotech, code RPNQ 0150) were added ([…] per well) to terminate the assay. Plates were sealed and shaken and allowed to stand at ambient temperature for 35 minutes to 1 hour (preferably 35 minutes) to allow the beads to settle. Bound radioactive product was measured using a WALLAC TRILUX 1450 Microbeta scintillation counter. For inhibition curves, 10 concentrations (1.5 nM-30 uM) of each compound were assayed. Curves were analysed using ActivityBase and XLfit (ID. Business Solutions Limited, 2 Ocean Court, Surrey Research Park, Guildford, Surrey GU2 7QB, United Kindgom) Results were expressed as pIC50 values.
The ability of compounds to inhibit catalytic activity at PDE4B (human recombinant) or PDE4D (human recombinant) was determined by IMAP Fluorescence Polarisation ([…]) assay (IMAP Explorer kit, available from Molecular Devices Corporation, Sunnydale, Calif., USA; Molecular Devices code: R^8062) in 384-well format. The IMAP FP assay is able to measure PDE activity in an homogenous, non-radioactive assay format. The FP assay uses the ability of immobilised trivalent metal cations, coated onto nanoparticles (tiny beads), to bind the phosphate group of Fl-AMP that is produced on the hydrolysis of fluorescein-labelled (Fl) cyclic adenosine mono-phosphate (Fl-cAMP) to the non-cyclic Fl-AMP form. […] Binding of Fl-AMP product to the beads (coated with the immobilised trivalent cations) slows the rotation of the bound Fl-AMP and leads to an increase in the fluorescence polarisation ratio of parallel to perpendicular light. Inhibition of the PDE reduces/inhibits this signal increase. […]

T1 sequence (Q07343 1-564 isoform Q07343-2): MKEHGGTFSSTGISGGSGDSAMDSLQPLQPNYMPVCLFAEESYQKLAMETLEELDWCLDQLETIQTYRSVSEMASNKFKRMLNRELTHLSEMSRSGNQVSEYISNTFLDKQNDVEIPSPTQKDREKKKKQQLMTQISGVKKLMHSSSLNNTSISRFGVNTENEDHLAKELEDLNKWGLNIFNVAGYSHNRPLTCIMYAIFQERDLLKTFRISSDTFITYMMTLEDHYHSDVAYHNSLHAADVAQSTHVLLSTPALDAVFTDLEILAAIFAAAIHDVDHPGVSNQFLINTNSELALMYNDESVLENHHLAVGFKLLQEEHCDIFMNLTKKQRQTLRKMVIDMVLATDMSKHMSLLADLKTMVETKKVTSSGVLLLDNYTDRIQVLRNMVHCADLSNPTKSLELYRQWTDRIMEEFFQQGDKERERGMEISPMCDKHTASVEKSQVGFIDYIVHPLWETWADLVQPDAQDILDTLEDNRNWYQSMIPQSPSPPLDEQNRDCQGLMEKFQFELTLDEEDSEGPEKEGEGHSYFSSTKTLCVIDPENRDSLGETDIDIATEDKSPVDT

Row | Compound | IC50
1 | CCOC(=O)c1cnc2c(cnn2CC)c1NC1CCSC1 (racemic) [Example 11, Ethyl 1-ethyl-4-(tetrahydrothien-3-ylamino)-1H-pyrazolo[3,4-b]pyridine-5-carboxylate] | 39.8 nM
2 | CCOC(=O)c1cnc2c(cnn2CC)c1NC1CCCC1 [Example 1, Ethyl 4-(cyolopentylamino)-1-ethyl-1H-pyrazolo[3,4-b]pyridine-5-carboxylate] | 12.6 to 100 nM
3 | CCOC(=O)c1cnc2c(cnn2CC)c1NC1CCCCC1 [Example 2, Ethyl 4-(cyclohexylamino)-1-ethyl-1H-pyrazolo[3,4-b]pyridine-5-carboxylate] | 10 nM
4 | CCOC(=O)c1cnc2c(cnn2CC)c1NC1CCOCC1 [Example 3, Ethyl 1-ethyl-4-(tetrahydro-2H-pyran-4-ylamino)-1H-pyrazolo[3,4-b]pyridine-5-carboxylate] | 15.8 nM
5 | CCOC(=O)c1cnc2c(cnn2C)c1NC1CCCC1 [Example 6] | 251 nM
6 | CCn1ncc2c(NC3CCCCC3)c(C(=O)NCc3ccncc3)cnc21 [Example 32, 4-(Cyolohexylamino)-1-ethyl-N-(pyridin-4-ylmethyl)-1H-pyrazolo[3,4-b]pyridine-5-carboxamide] | 20 nM
7 | CCn1ncc2c(NC3CCOCC3)c(C(N)=O)cnc21 [Example 36, 1-Ethyl-4-(tetrahydro-2H-pyran-4-ylamino)-1H-pyrazolo[3,4-b]pyridine-5-carboxamide] | 12.6 to 100 nM
8 | CCn1ncc2c(NC3CCCC3)c(C(=O)NCc3ccccc3)cnc21 [Example 39, N-Benzyl-4-(cyclopentylamino)-1-ethyl-1H-pyrazolo[3,4-b]pyridine-5-carboxamide] | 12.6 to 100 nM
9 | CCn1ncc2c(NC3CCCCC3)c(C(=O)NCc3ccccc3)cnc21 [Example 40, N-Benzyl-4-(cyclohexylamino)-1-ethyl-1H-pyrazolo[3,4-b]pyridine-5-carboxamide] | 5.01 nM
10 | CCn1ncc2c(NC3CCN(C(C)=O)CC3)c(C(=O)NCc3ccccc3)cnc21 [Example 41, 4-[(1-Acetylpiperidin-4-yl)amino]-N-benzyl-1-ethyl-1H-pyrazolo[3,4-b]pyridine-5-carboxamide] | 12.6 to 100 nM
11 | CCC(CC)CNC(=O)c1cnc2c(cnn2CC)c1NC1CCCC1 [Example 42, 4-(Cyclopentylamino)-1-ethyl-N-(2-ethylbutyl)-1H-pyrazolo[3,4-b]pyridine-5-carboxamide] | 12.6 to 100 nM
12 | CCC(CC)CNC(=O)c1cnc2c(cnn2CC)c1NC1CCCCC1 [Example 43, 4-(Cyclohexylamino)-1-ethyl-N-(2-ethylbutyl)-1H-pyrazolo[3,4-b]pyridine-5-carboxamide] | 12.6 to 100 nM
13 | CCC(CC)CNC(=O)c1cnc2c(cnn2CC)c1NC1CCOCC1 [Example 44, 1-Ethyl-N-(2-ethylbutyl)-4-(tetrahydro-2H-pyran-4-ylamino)-1H-pyrazolo[3,4-b]pyridine-5-carboxamide] | 12.6 to 100 nM
14 | CCn1ncc2c(NC3CCCC3)c(C(=O)Nc3ccc(F)cc3)cnc21 [Example 47, 4-(Cyclopentylamino)-1-ethyl-N-(4-fluorophenyl)-1H-pyrazolo[3,4-b]pyridine-5-carboxamide] | 12.6 to 100 nM
15 | CCn1ncc2c(NC3CCCCC3)c(C(=O)Nc3ccc(F)cc3)cnc21 [Example 48, 4-(Cyclohexylamino)-1-ethyl-N-(4-fluorophenyl)-1H-pyrazolo[3,4-b]pyridine-5-carboxamide] | 12.6 to 100 nM
16 | Cn1ncc2c(NC3CCOCC3)c(C(=O)NCc3ccccc3)cnc21 [Example 63, N-Benzyl-1-methyl-4-(tetrahydro-2H-pyran-4-ylamino)-1H-pyrazolo[3,4-b]pyridine-5-carboxamide] | 126 nM

Now from value to compound:

Row | IC50 | Compound
17 | 0.1 to 6.31 nM | CCn1ncc2c(NC3CCOCC3)c(C(=O)NCc3ccc(S(C)(=O)=O)cc3)cnc21 [Example 100, 1-Ethyl-N-[4-(methylsulfonyl)benzyl]-4-(tetrahydro-2H-pyran-4-ylamino)-1H-pyrazolo[3,4-b]pyridine-5-carboxamide]
18 | 12.6 to 100 nM | CCn1ncc2c(NC3CCOCC3)c(C(=O)NCc3nccs3)cnc21 [Example 109, 1-Ethyl-4-(tetrahydro-2H-pyran-4-ylamino)-N-(1,3-thiazol-2-ylmethyl)-1H-pyrazolo[3,4-b]pyridine-5-carboxamide]
19 | 0.1 to 6.31 nM | CCn1ncc2c(NC3CCOCC3)c(C(=O)NC3Cc4ccccc4C3)cnc21 [Example 165, N-(2,3-Dihydro-1H-inden-2-yl)-1-ethyl-4-(tetrahydro-2H-pyran-4-ylamino)-1H-pyrazolo[3,4-b]pyridine-5-carboxamide]
20 | 0.1 to 6.31 nM | CCn1ncc2c(NC3CCOCC3)c(C(=O)NCc3ccc(OC)c(OC)c3)cnc21 [Example 167, N-(3,4-Dimethoxybenzyl)-1-ethyl-4-(tetrahydro-2H-pyran-4-ylamino)-1H-pyrazolo[3,4-b)pyridine-5-carboxamide]
21 | 12.6 to 100 nM | CCn1ncc2c(NC3CCOCC3)c(C(=O)NCc3cnn(C)c3)cnc21 [Example 178, 1-Ethyl-N-[(1-methyl-1H-pyrazo1-4-yl)methyl]-4-(tetrahydro-2H-pyran-4-ylamino)-1H-pyrazolo[3,4-b]pyridine-5-carboxamide]
22 | 12.6 to 100 nM | CCCn1ncc2c(NC3CCOCC3)c(C(=O)NCc3ccc(S(C)(=O)=O)cc3)cnc21 [Example 187, N-[4-(Methylsulfonyl)benzyl]-1-n-propyl-4-(tetrahydro-2H-pyran-4-ylamino)-1H-pyrazolo[3,4-b]pyridine-5-carboxamide]
23 | 12.6 nM | CCn1ncc2c(NC3CCOCC3)c(C(=O)NCc3ccccc3)c(C)nc21 [Example 196, N-Benzyl-1-ethyl-6-methyl-4-(tetrahydro-2H-pyran-4-ylamino)-1H-pyrazolo[3,4-b]pyridine-5-carboxamide]
24 | 3.16 nM | CCn1ncc2c(NC3CCCC(O)C3)c(C(=O)NCc3ccccc3)cnc21 (stereo not drawn) [Example 198, N-Benzyl-1-ethyl-4-[(3-hydroxycyclohexyl)amino]-1H-pyrazolo[3,4-b]pyridine-5-carboxamide]
25 | 0.1 to 6.31 nM | CCn1ncc2c(NC3CCC(=O)CC3)c(C(=O)NCc3ccccc3)cnc21 [Example 201, N-Benzyl-1-ethyl-4-[(4-oxocyclohexyl)amino]-1H-pyrazolo[3,4-b]pyridine-5-carboxamide]
26 | 0.1 to 6.31 nM | CCn1ncc2c(NC3CCC(=O)CC3)c(C(=O)NCc3ccc(C)cc3C)cnc21 [Example 260, N-[(2,4-dimethylphenyl)methyl]-1-ethyl-4-[(4-oxocyclohexyl)amino]-1H-pyrazolo[3,4-b]pyridine-5-carboxamide]
27 | 0.1 to 6.31 nM | CCn1ncc2c(NC3CCC(=O)CC3)c(C(=O)NCc3ccc(C)c(C)c3)cnc21 [Example 261, N-[(3,4-Dimethylphenyl)methyl]-1-ethyl-4-[(4-oxocyclohexyl)amino]-1H-pyrazolo[3,4-b]pyridine-5-carboxamide]
28 | 0.1 to 6.31 nM | CCn1ncc2c(NC3CCC(=O)CC3)c(C(=O)NCc3ccc(OC)cc3)cnc21 [Example 263]
29 | 0.1 to 6.31 nM | CCn1ncc2c(NC3CCC(=O)CC3)c(C(=O)NCc3ccc(N(C)C)cc3)cnc21 [Example 265, N-{[4-(Dimethylamino)phenyl]methyl}-1-ethyl-4-[(4-oxocyclohexyl)amino]-1H-pyrazolo[3,4-b]pyridine-5-carboxamide]
30 | 0.1 to 6.31 nM | CCn1ncc2c(NC3CCC(=O)CC3)c(C(=O)NCc3ccc(OC(F)F)cc3)cnc21 [Example 266, N-({4-[(Difluoromethyl)oxy]phenyl}methyl)-1-ethyl-4-[(4-oxocyclohexyl)amino]-1H-pyrazolo[3,4-b]pyridine-5-carboxamide]
